In patent publication US20070082883A1, “HIV protease inhibitors” (THE BOARD OF TRUSTEES OF THE UNIVERSITY OF ILLINOIS, priority 2002, published 2007) one finds IC50 and Ki data, which are given here for 42 compounds.

The target of the assay is T1, HIV-1 protease (Human immunodeficiency virus type 1 group M subtype B, UniProt P04585).
T1 construct: made in house; host or cells: E. coli BL21 (dE3)pLysS, pET30a vector
Description: HIV-1 Protease Inhibition Assay. Format: biochemical. The following applies: fluorogenic substrate assay. The source says: Assays of the dose-response effect of inhibitor compounds can be described as a curve expressing a degree of inhibition as a function of concentration. The curve theoretically passes through a point at which the concentration is sufficient to reduce activity of the HIV protease enzyme to a level that is 50% that of the difference between minimal and maximal enzyme activity in the assay.
HIV-1 Protease Inhibition Assay
The HIV-1 protease gene was subcloned into the pET30a vector (Novagen) and then transformed into BL21 (dE3)pLysS cells for protein expression. Protein expression and purification were followed according to Tang's procedure (Hong et al., Biochemistry, 1996, 35, 10627-10633). […] The inclusion body containing some bacterial proteins was thoroughly washed by using TRITON X-100, solubilized in […] and passed through the Q-sepharose column to remove the bacterial proteins which interfered with subsequent refolding steps. HIV-1 protease was refolded from the urea to an active form by dialysis. As a final step, gel filtration chromatography was used to remove impurities after refolding. Activities of purified HIV-1 protease were examined using a fluorogenic substrate, 2-aminobenzoyl-Thr-Ile-Nle-Phe(pNO2)-Gln-Arg-NH2 (Novabiochem). […] In the condition of So<<Km, v=Eo(kcat/Km)So, where Eo is the total enzyme concentration, and So is the substrate concentrate. […] Assays are carried out as described by Toth and Marshall (Toth et al., Int. J. Pept. Protein Res., 1990, 36, 544-50).
Usually IC50 stands for the concentration at which inhibition is half-maximal. By Ki is commonly meant a measure of affinity in units of concentration, obtained from inhibition or displacement. Read a high Ki as lower affinity. As to `COc1ccc(S(=O)(=O)N(C[C@@H](O)[C@H](Cc2ccccc2)NC(=O)O[C@H]2CCOC2)C2CN(C)C2)cc1` [Compound 206], the concentration for half-maximal inhibition (IC50) is 109 nM and the Ki was 34 nM.

Consider `COc1ccc(S(=O)(=O)N(CC(C)C)C[C@@H](O)[C@H](Cc2ccc(OCc3ccccc3)cc2)NC(=O)OC(C)(C)C)cc1` [Compound 207], for which the IC50 came to 96 nM and the inhibitory constant (Ki) stood at 30 nM.

On to `COc1ccc(S(=O)(=O)N(CC(=O)[C@H](Cc2ccc(OCc3ccccc3)cc2)NC(=O)OC(C)(C)C)CC(C)C)cc1` [Compound 208], for which the half-maximal inhibitory concentration (IC50) is > 2300 nM. `COc1ccc(S(=O)(=O)N(CC(C)C)C[C@H](O)[C@H](Cc2ccc(OCc3ccccc3)cc2)NC(=O)OC(C)(C)C)cc1` [Compound 209] showed a half-inhibitory concentration (IC50) of 30 nM and a Ki of 9.3 nM. The matching figures for `COc1ccc(S(=O)(=O)N(CC(C)C)CC(O)C(Cc2ccc(OCc3ccccc3)cc2)NC(=O)OC(C)(C)C)cc1` (stereo not drawn) [Compound 210]: 13 nM and 4.1 nM. In the same order, the values of `COc1ccc(S(=O)(=O)N(CC(C)C)C[C@H](O)[C@H](Cc2ccc(OCc3ccccc3)cc2)NC(=O)O[C@H]2CO[C@H]3OCCC32)cc1` (stereo partly drawn) [Compound 211] are 90 nM and 28 nM.

Take `COc1ccc(S(=O)(=O)N(CC(C)C)C[C@@H](O)[C@H](Cc2ccc(OCc3ccccc3)cc2)NC(=O)O[C@H]2CO[C@H]3OCCC32)cc1` (stereo partly drawn) [Compound 212]: the IC50 worked out at 30 nM and affinity was put at a Ki of 9.3 nM. Compound `COc1ccc(S(=O)(=O)N(CC(C)C)C[C@@H](O)[C@H](Cc2ccc(O)cc2)NC(=O)O[C@H]2CO[C@H]3OCCC32)cc1` (stereo partly drawn) [Compound 213] returned an IC50 of 4.1 nM and a Ki of 1.3 nM.

`C=CCCCCN(C[C@@H](O)[C@H](Cc1ccccc1)NC(=O)O[C@H]1CO[C@H]2OCCC21)S(=O)(=O)c1cccc(OCCCC=C)c1` (stereo partly drawn) [Compound 225] displayed an IC50 of 8.1 nM and a Ki of 2.5 nM. In the same order, the values of `O=C(N[C@@H](Cc1ccccc1)[C@H](O)CN1CCCC/C=C/CCCOc2cccc(c2)S1(=O)=O)O[C@H]1CO[C@H]2OCCC21` (stereo partly drawn) [Compound 225a] are 7.8 nM and 2.4 nM. In the same order, the values of `O=C(N[C@@H](Cc1ccccc1)[C@H](O)CN1CCCCCCCCCOc2cccc(c2)S1(=O)=O)O[C@H]1CO[C@H]2OCCC21` (stereo partly drawn) [Compound 225b] are 7.8 nM and 2.4 nM. For the compound `C=CCCCCOc1cccc(S(=O)(=O)N(CCCCC=C)C[C@@H](O)[C@H](Cc2ccccc2)NC(=O)O[C@H]2CO[C@H]3OCCC32)c1` (stereo partly drawn) [Compound 225c], the IC50 stood at 8.5 nM and the Ki is 2.6 nM.

Compound `C=CCCCCN(C[C@@H](O)[C@H](Cc1ccccc1)NC(=O)O[C@@H]1CC2CCO[C@@H]2C1)S(=O)(=O)c1cccc(OCC=C)c1` (stereo partly drawn) [Compound 225f] returned an IC50 of 11 nM and a Ki of 3.4 nM. In the case of `O=C(N[C@@H](Cc1ccccc1)[C@H](O)CN1CCCC/C=C\COc2cccc(c2)S1(=O)=O)O[C@@H]1CC2CCO[C@@H]2C1` (stereo partly drawn) [Compound 225g], the IC50 is 10 nM and the affinity corresponds to a Ki of 3.1 nM. `O=C(N[C@@H](Cc1ccccc1)[C@H](O)CN1CCCCCCCOc2cccc(c2)S1(=O)=O)O[C@@H]1CC2CCO[C@@H]2C1` (stereo partly drawn) [Compound 225h]: the IC50 is 6.8 nM and the inhibition constant Ki came to 2.1 nM. `C=CCCCCOc1cccc(S(=O)(=O)N(CCCCC=C)C[C@@H](O)[C@H](Cc2ccccc2)NC(=O)O[C@@H]2CC3CCO[C@@H]3C2)c1` (stereo partly drawn) [Compound 225i] came in with an IC50 of 17 nM and a Ki of 5.3 nM. On to `C=CCCCCOc1ccccc1COC(=O)N(CCCC=C)C[C@@H](O)[C@H](Cc1ccccc1)NC(=O)O[C@@H]1CC2CCO[C@@H]2C1` (stereo partly drawn) [Compound 226], for which the IC50 is > 2000 nM. Compound `O=C(N[C@@H](Cc1ccccc1)[C@H](O)CN1CCC/C=C\CCCCOc2ccccc2COC1=O)O[C@@H]1CC2CCO[C@@H]2C1` (stereo partly drawn) [Compound 227] yielded an IC50 of 495 nM and a Ki of 154 nM.

In the case of `O=C(N[C@@H](Cc1ccccc1)[C@H](O)CN1CCCCCCCCCOc2ccccc2COC1=O)O[C@@H]1CC2CCO[C@@H]2C1` (stereo partly drawn) [Compound 228], inhibition was half-maximal at 2200 nM (IC50) and the Ki came to 638 nM. In the same order, the values of `C=CCCCCN(C[C@@H](O)[C@H](Cc1ccccc1)NC(=O)O[C@H]1CO[C@H]2OCCC21)S(=O)(=O)c1cccc(OCC=C)c1` (stereo partly drawn) [Compound 229] are 9.1 nM and 2.1 nM. In the same order, the values of `O=C(N[C@@H](Cc1ccccc1)[C@H](O)CN1CCCCCCCOc2cccc(c2)S1(=O)=O)O[C@H]1CO[C@H]2OCCC21` (stereo partly drawn) [Compound 231] are 8.6 nM and 2.7 nM. The matching figures for `C=CCCCCN(C[C@@H](O)[C@H](Cc1ccccc1)NC(=O)O[C@H]1CO[C@H]2OCCC21)S(=O)(=O)c1cccc(OCCC=C)c1` (stereo partly drawn) [Compound 232]: 5.4 nM and 1.7 nM.

In the case of `O=C(N[C@@H](Cc1ccccc1)[C@H](O)CN1CCCC/C=C\CCOc2cccc(c2)S1(=O)=O)O[C@H]1CO[C@H]2OCCC21` (stereo partly drawn) [Compound 233], the IC50 is 8.7 nM and the Ki came to 2.7 nM. `O=C(N[C@@H](Cc1ccccc1)[C@H](O)CN1CCCCCCCCOc2cccc(c2)S1(=O)=O)O[C@H]1CO[C@H]2OCCC21` (stereo partly drawn) [Compound 234] registered an IC50 of 7.3 nM and a Ki of 2.3 nM. With `O=C(N[C@@H](Cc1ccccc1)[C@H](O)CN1CCCC/C=C\CCCCOc2cccc(c2)S1(=O)=O)O[C@@H]1CC2CCO[C@@H]2C1` (stereo partly drawn) [Compound 235], the IC50 is 9.3 nM and the Ki is 2.9 nM. The matching figures for `O=C(N[C@@H](Cc1ccccc1)[C@H](O)CN1CCCCCCCCCCOc2cccc(c2)S1(=O)=O)O[C@@H]1CC2CCO[C@@H]2C1` (stereo partly drawn) [Compound 236]: 11 nM and 3.4 nM.

For `C=CCCCCN(C[C@@H](O)[C@H](Cc1ccccc1)NC(=O)O[C@@H]1CC2CCO[C@@H]2C1)S(=O)(=O)c1cccc(C(O)CC=C)c1` (stereo partly drawn) [Compound 237], the midpoint of inhibition, the IC50, lay at 10 nM and the Ki was 3.1 nM. The matching figures for `O=C(N[C@@H](Cc1ccccc1)[C@H](O)CN1CCCCCCCC(O)c2cccc(c2)S1(=O)=O)O[C@@H]1CC2CCO[C@@H]2C1` (stereo partly drawn) [Compound 238]: 4 nM and 1.2 nM. The compound `O=C(N[C@@H](Cc1ccccc1)[C@H](O)CN1CCCC/C=C/CCCC(O)c2cccc(c2)S1(=O)=O)OCc1cccnc1` (stereo partly drawn) [Compound 239] gave an IC50 of 34 nM and a Ki of 11 nM.

The compound `CC(C)CN(C[C@@H](O)[C@H](Cc1ccccc1)NC(=O)O[C@@H]1CCOC1)[C@H]1CCNC1=O` [Compound 248] showed a Ki of 730 nM. The compound `CC(C)CN(C[C@@H](O)[C@H](Cc1ccccc1)NC(=O)O[C@H]1CO[C@H]2OCC[C@H]21)[C@H]1CCNC1=O` [Compound 249] came in with an inhibition constant Ki of 37 nM. The same measure, in the same setting: in the case of `CC(C)CN(C[C@@H](O)[C@H](Cc1ccccc1)NC(=O)O[C@H]1CO[C@H]2OCC[C@H]21)[C@@H]1C(=O)Nc2ccccc21` [Compound 250] it was 1 nM. Take `COc1ccc(S(=O)(=O)N(CC(C)C)C[C@@H](O)C(Cc2ccccc2)NC(=O)O[C@H]2CO[C@@H]3OCCC[C@@H]32)cc1` (stereo partly drawn) [Compound 253]: the IC50 came out at 1 nM. Compound `CC(C)CN(C[C@H](O)C(Cc1ccccc1)NC(=O)O[C@@H]1C[C@@H]2CCO[C@@H]2C1)S(=O)(=O)c1ccc(CO)cc1` (stereo partly drawn) [Compound 254] came in with an IC50 of 1 nM. On the same count and under the same terms, as for `CC(C)CN(C[C@@H](O)[C@H](Cc1ccccc1)NC(=O)O[C@@H]1CC2CCO[C@@H]2C1)S(=O)(=O)c1ccc(/C=N/O)cc1` (stereo partly drawn) [Compound 256], the figure is 1.7 nM; as for `CC(C)CN(C[C@@H](O)[C@H](Cc1ccccc1)NC(=O)O[C@@H]1CC2CCO[C@@H]2C1)S(=O)(=O)c1cccc(/C=N/O)c1` (stereo partly drawn) [Compound 257], 2.9 nM; as for `CC(C)CN(C[C@@H](O)[C@H](Cc1ccccc1)NC(=O)O[C@@H]1CC2CCO[C@@H]2C1)S(=O)(=O)c1ccc(O)c(O)c1` (stereo partly drawn) [Compound 258], 3.9 nM. Same read-out and setting: as for `Cc1cc(S(=O)(=O)N(CC(C)C)C[C@@H](O)[C@H](Cc2ccccc2)NC(=O)O[C@@H]2CC3CCO[C@@H]3C2)ccc1CO` (stereo partly drawn) [Compound 259], the figure is 2.8 nM; as for `CC(C)CN(C[C@@H](O)[C@H](Cc1ccccc1)NC(=O)O[C@@H]1CC2CCO[C@@H]2C1)S(=O)(=O)c1ccc(N)cc1` (stereo partly drawn) [Compound 261], 2.2 nM. Still for that read-out and setting: in the case of `CC(C)CN(C[C@@H](O)[C@H](Cc1ccccc1)NC(=O)OC1CO[C@H]2OCC[C@@H]12)C1CC(C)(C)NC1=O` (stereo partly drawn) [Compound 269] it was 3.4 nM; in that of `CC(C)CN(C[C@@H](O)[C@H](Cc1ccccc1)NC(=O)OC1CO[C@H]2OCC[C@@H]12)C1CC2(CCCC2)NC1=O` (stereo partly drawn) [Compound 270], 6.4 nM.

For `COc1ccc(S(=O)(=O)N(C[C@H]2CCC(=O)N2)C[C@@H](O)[C@H](Cc2ccccc2)NC(=O)OC(C)(C)C)cc1` [Compound 271, ((1S)-Benzyl-(2R)-hydroxy-3-[(4-methoxybenzene-sulfonyl)-(5-oxopyrrolidin-(2R)-ylmethyl)amino]-propyl)carbamic acid tert-butyl ester], the IC50 stood at 3 nM.
